Laboratory results taken from PMC2584942, “Phase I dose escalation study of telatinib (BAY 57-9352) in patients with advanced solid tumours” (British Journal of Cancer, 2008).
Where two headings read alike, the source gives them in different places.

Assay: Plasma pharmacokinetics of telatinib and metabolite BAY 60-8246 (LC-MS-MS, non-compartmental)
Assay type: in vivo, human
Details: for half-life / Tmax / Cmax / AUC(0-t) / AUC: human; for AUC(0-t): read-out: AUC0–12; for AUC: read-out: AUC0–tn
Procedure: Patients with at least one valid pharmacokinetic profile were valid for the pharmacokinetic analysis. Plasma samples were collected at predose and 0.5, 1, 2, 3, 4, 6, 8, and 12 h postdose on day 1 and day 14 of cycle 1 and were analysed for BAY 57-9352 and its demethylated metabolite M-2, BAY 60-8246, using a validated LC-MS-MS analytical method.
Plasma pharmacokinetic parameters, area under the curve from time 0–12 h after dosing (AUC0−12), area under the curve from time 0 to last data point (AUC0−tn), maximum plasma concentration (Cmax), and time to maximum plasma concentration (tmax) of telatinib and its metabolite (BAY 60-8246) as well as half-life of telatinib were calculated by non-compartmental methods using WinNonlin version 4.1.a (Pharsight Corporation). The linear-logarithmic trapezoidal rule was used for calculating AUC. Half-life was calculated by linear least squares regression after logarithmic transformation of the terminal concentrations. Pharmacokinetic parameters were analysed using descriptive statistics.

[1] = telatinib in plasma, day 14 cycle 1, 75 mg BID oral, 25 mg mesylate tablet, n=4, geometric mean (%CV)
[2] = telatinib in plasma, day 14 cycle 1, 150 mg BID oral, 25 mg mesylate tablet, n=6, geometric mean (%CV)
[3] = telatinib in plasma, day 14 cycle 1, 300 mg BID oral, 25 mg mesylate tablet, n=6, geometric mean (%CV)
[4] = telatinib in plasma, day 14 cycle 1, 600 mg BID oral, 150 mg mesylate tablet, n=11, geometric mean (%CV)
[5] = telatinib in plasma, day 14 cycle 1, 900 mg BID oral, 150 mg mesylate tablet, n=12, geometric mean (%CV)
[6] = telatinib in plasma, day 14 cycle 1, 1200 mg BID oral, 150 mg mesylate tablet, n=6, geometric mean (%CV)
[7] = telatinib in plasma, day 14 cycle 1, 1500 mg BID oral, 150 mg mesylate tablet, n=12, geometric mean (%CV)

CNC(=O)c1cc(COc2nnc(Nc3ccc(Cl)cc3)c3ccoc23)ccn1 [telatinib]
Relative bioavailability (150 mg tablet formulation compared with 25 mg tablet formulation): less when compared with the 25 mg tablet formulation
Dose proportionality of geometric mean Cmax and AUC0−12 (BID dosing, plateaued in the 900–1500 mg BID dose range): less than dose-proportional
Increase in geometric mean Cmax between dose levels (between the 300 and 600 mg BID dose level): two-fold
half-life (plasma, oral, telatinib, across dose levels, discussion statement, read-out: half-life): 6.6 to 10.9 h
Tmax (plasma, telatinib, oral, BID dosing, read-out: median tmax): ≤ 3 h
Cmax [1]: 212 ng/mL
AUC(0-t) [1]: 1390 ng·h/mL
AUC [1]: 1380 ng·h/mL
half-life (telatinib in plasma, day 14 cycle 1, 75 mg BID oral, 25 mg mesylate tablet, n=4, geometric mean (%CV), read-out: t1/2 (converted)): 7.4 h
Tmax (telatinib in plasma, day 14 cycle 1, 75 mg BID oral, 25 mg mesylate tablet, n=4, median (range), read-out: tmax): 2.1 h
Cmax [2]: 219 ng/mL
AUC(0-t) [2]: 1730 ng·h/mL
AUC [2]: 1750 ng·h/mL
half-life (telatinib in plasma, day 14 cycle 1, 150 mg BID oral, 25 mg mesylate tablet, n=6, geometric mean (%CV), read-out: t1/2 (converted)): 10.9 h
Tmax (telatinib in plasma, day 14 cycle 1, 150 mg BID oral, 25 mg mesylate tablet, n=6, median (range), read-out: tmax): 3 h
AUC(0-t) (telatinib in plasma, day 14 cycle 1, 300 mg BID oral, 25 mg mesylate tablet, n=6 (sample size reduced by 2), geometric mean (%CV)): 2860 ng·h/mL
half-life (telatinib in plasma, day 14 cycle 1, 300 mg BID oral, 25 mg mesylate tablet, n=6 (sample size reduced by 2), geometric mean (%CV), read-out: t1/2 (converted)): 8 h
Cmax [3]: 389 ng/mL
AUC [3]: 1920 ng·h/mL
Tmax (telatinib in plasma, day 14 cycle 1, 300 mg BID oral, 25 mg mesylate tablet, n=6, median (range), read-out: tmax): 1.5 h
Cmax [4]: 810 ng/mL
AUC(0-t) [4]: 5430 ng·h/mL
AUC [4]: 5430 ng·h/mL
half-life (telatinib in plasma, day 14 cycle 1, 600 mg BID oral, 150 mg mesylate tablet, n=11, geometric mean (%CV), read-out: t1/2 (converted)): 8.7 h
Tmax (telatinib in plasma, day 14 cycle 1, 600 mg BID oral, 150 mg mesylate tablet, n=11, median (range), read-out: tmax): 2.1 h
half-life (telatinib in plasma, day 14 cycle 1, 900 mg BID oral, 150 mg mesylate tablet, n=12 (sample size reduced by 2), geometric mean (%CV), read-out: t1/2 (converted)): 5.6 h
Cmax [5]: 1280 ng/mL
AUC(0-t) [5]: 7300 ng·h/mL
AUC [5]: 7410 ng·h/mL
Tmax (telatinib in plasma, day 14 cycle 1, 900 mg BID oral, 150 mg mesylate tablet, n=12, median (range), read-out: tmax): 2 h
Cmax [6]: 1140 ng/mL
AUC(0-t) [6]: 7260 ng·h/mL
AUC [6]: 7100 ng·h/mL
half-life (telatinib in plasma, day 14 cycle 1, 1200 mg BID oral, 150 mg mesylate tablet, n=6, geometric mean (%CV), read-out: t1/2 (converted)): 5.6 h
Tmax (telatinib in plasma, day 14 cycle 1, 1200 mg BID oral, 150 mg mesylate tablet, n=6, median (range), read-out: tmax): 2.5 h
Cmax [7]: 964 ng/mL
AUC(0-t) [7]: 6290 ng·h/mL
AUC [7]: 6170 ng·h/mL
half-life (telatinib in plasma, day 14 cycle 1, 1500 mg BID oral, 150 mg mesylate tablet, n=12, geometric mean (%CV), read-out: t1/2 (converted)): 6.6 h
Tmax (telatinib in plasma, day 14 cycle 1, 1500 mg BID oral, 150 mg mesylate tablet, n=12, median (range), read-out: tmax): 2.5 h
median tmax (telatinib, oral, 75 mg BID to 1500 mg BID dose range): ≤ 3 h
